These results are taken from US10919843B2, “Cannabidiol derivatives as inhibitors of the HIF prolyl hydroxylases activity” (priority 2017, dated 2021).

For assay [1], the system named is HIF-1α. As to the kind of experiment: HIF-1α transactivation assay in NIH-3T3-EPO-Luc cells. Format: cell-based. The conditions noted are these: for EC50: read-out: Potency EC50 HIF-1α; for Efficacy HIF-1α (IRA coefficient): relative to 150 μM DFX. Here is the method:
(§1) To investigate the biological activities of the different compounds, HIF-1α transactivation assays were performed either in NIH-3T3-EPO-Luc cells (Table 1) or in HaCaT-EPO-luc cells (Table 2). The NIH3T3-EPO-luc and HaCaT-EPO-luc cells have been stably transfected with the plasmid Epo-Luc plasmid. The EPO-Hypoxia Response Element (HRE)-luciferase reporter plasmid contains three copies of the HRE consensus sequence from the promoter of the erythropoietin gene fused to the luciferase gene.
NIH3T3-EPO-luc cells were maintained at 37° C. in a humidified atmosphere containing 5% CO2 in DMEM supplemented with 10% fetal calf serum (FBS), and 1% (v/v) penicillin/streptomycin. Deferoxamine (DFX) was purchased from Sigma-Aldrich (USA). Cells (1×10^4/well in 96-well plates) were seeded the day before the assay. The next day, the cells were stimulated with increasing concentrations of either Cannabidiol (CBD), VCE-004 or compounds II to X. After six hours of stimulation the cells were lysed in 25 mM Tris-phosphate pH 7.8, 8 mM MgCl2, 1 mM DTT, 1% Triton X-100, and 7% glycerol during 15 min at RT in a horizontal shaker. Luciferase activity was measured using a microplate luminometer (Berthold) following the instructions of the luciferase assay kit (Promega, Madison. Wis., USA).
(§2) HaCaT-EPO-Luc cells were maintained at 37° C. in a humidified atmosphere containing 5% CO2 in DMEM supplemented with 10% fetal calf serum (FBS), and 1% (v/v) penicillin/streptomycin. The cells (1×10^5/well in 24-well plates) were seeded the day before the assay and then stimulated with increasing concentrations of either Cannabidiol (CBD), VCE-004 or compounds II to X. After six hours of stimulation the cells were lysed in 25 mM Tris-phosphate pH 7.8, 8 mM MgCi2, 1 mM DTT, 1% Triton X-100, and 7% glycerol during 15 min at RT in a horizontal shake. Luciferase activity was measured in the cell lysates as indicated for NIH3T3-EPO-Luc cells. The RLUs are calculated and the EC50 and IRA (Intrinsic relative activity) values in both cell lines were determined relative to 150 μM deferoxamine (DFX) using the following equation: IRA coefficient=(EC50-DFX×Emax)/(EC50×Emax-DFX), where EC50 and Emax denote EC50 and Emax of the agonist, and EC50-DFX and Emax-DFX denote EC50 and Emax values of the standard agonist DFX (Table 1 and 2).

Assay [2] concerns HIF-1α. As to the kind of experiment: HIF-1α transactivation assay in HaCaT-EPO-luc cells. The format is cell-based. The settings on record: for Efficacy HIF-1α (IRA coefficient): relative to 150 μM DFX; for EC50: read-out: Potency EC50 HIF-1α. Here is the method:
as §1, §2

Setting [3] is: NIH-3T3-EPO-Luc cells, 6 h stimulation.
[4] abbreviates: HaCaT-EPO-Luc cells, 6 h stimulation.

In the case of `C=C(C)[C@@H]1CCC(C)=C[C@H]1C1=C(O)C(=O)C(CCCCC)=C(NCCCCC)C1=O` [III], the 50% effective concentration (EC50) in assay [1] (6 h) was 3.6 µM; in assay [2] (setting [4]), 1.7 µM. The results for the “Efficacy HIF-1α (IRA coefficient)” value in assay [1] (setting [3]) and in assay [2] (setting [4]) were 0.28 and 5.84, respectively.

Turning to `C=C(C)[C@@H]1CCC(C)=C[C@H]1C1=C(O)C(=O)C(CCCCC)=C(NCCC(C)C)C1=O` [IX], the “Efficacy HIF-1α (IRA coefficient)” value in assay [1] (setting [3]) is reported as 0.8; in assay [2] (setting [4]), 8.64.

As to `C=C(C)[C@@H]1CCC(C)=C[C@H]1C1=C(O)C(=O)C(CCCCC)=C(NCc2ccccc2)C1=O` [Compound VIII], the results for the concentration giving a half-maximal response (EC50) in assay [1] (6 h) and in assay [2] (6 h) were 2.6 µM and 1.4 µM, respectively.

With `C=C(C)[C@@H]1CCC(C)=C[C@H]1C1=C(O)C(=O)C(CCCCC)=C(NCCC(C)C)C1=O` [X], in assay [1] (setting [3]), the “Efficacy HIF-1α (IRA coefficient)” value is 0.29 and the EC50 was 3.3 µM. In addition, in assay [2] (setting [4]), the “Efficacy HIF-1α (IRA coefficient)” value came to 10.35 and the EC50 was determined as 1.2 µM.

Regarding `C=C(C)[C@@H]1CCC(C)=C[C@H]1C1=C(O)C(=O)C(CCCCC)=C(NC)C1=O` [Compound VI], the results for the EC50 in assay [1] (6 h) and in assay [2] (6 h) were 2.8 µM and 4 µM, respectively. Besides, the “Efficacy HIF-1α (IRA coefficient)” value in assay [1] (setting [3]) worked out at 0.61; in assay [2] (setting [4]), 3.02.

Consider `C=C(C)[C@@H]1CCC(C)=C[C@H]1C1=C(O)C(=O)C(CCCCC)=C(NC(C)C)C1=O` [Compound VII], for which the figures for the 50% effective concentration (EC50) in assay [1] (6 h) and in assay [2] (6 h) were 2.9 µM and 5.5 µM, respectively. Also, the “Efficacy HIF-1α (IRA coefficient)” value in assay [1] (setting [3]) came to 0.68; in assay [2] (setting [4]) it was 2.3.

As to `C=C(C)[C@@H]1CCC(C)=C[C@H]1C1=C(O)C(=O)C(CCCCC)=C(NCC)C1=O` [II], the values for the 50% effective concentration (EC50) in assay [1] (6 h) and in assay [2] (6 h) were 4.3 µM and 3.2 µM, respectively. Moreover, the “Efficacy HIF-1α (IRA coefficient)” value is on record as 0.46 in assay [1] (setting [3]) and 3.87 in assay [2] (setting [4]).

Turning to `C=C(C)[C@@H]1CCC(C)=C[C@H]1C1=C(O)C(=O)C(CCCCC)=C(NCC(C)(C)C)C1=O` [IX], the 50% effective concentration (EC50) in assay [1] (6 h) was 2.5 µM; in assay [2] (6 h) it was 1.4 µM.

Consider `C=C(C)[C@@H]1CCC(C)=C[C@H]1C1=C(O)C(=O)C(CCCCC)=C(NCC(C)C)C1=O` [IV], for which the results for the 50% effective concentration (EC50) in assay [1] (6 h) and in assay [2] (6 h) were 3.2 µM and 1.6 µM, respectively. The figures for the “Efficacy HIF-1α (IRA coefficient)” value in assay [1] (setting [3]) and in assay [2] (setting [4]) were 0.61 and 5.64, respectively.

Regarding `C=C(C)[C@@H]1CCC(C)=C[C@H]1C1=C(O)C(=O)C(CCCCC)=C(NCCCC)C1=O` [Compound V], the concentration giving a half-maximal response (EC50) in assay [1] (6 h) was 1.8 µM; in assay [2] (6 h), 1.9 µM. Moreover, the figures for the “Efficacy HIF-1α (IRA coefficient)” value in assay [1] (setting [3]) and in assay [2] (setting [4]) were 0.85 and 5.01, respectively.
